Laboratory results: patent publication US20220388980A1, “QUINOLINE INHIBITORS OF RAD52 AND METHODS OF USE” (Drexel University, priority 2019, published 2022)

Target: T1, RAD52 (Homo sapiens, UniProt P43351)
T1 construct: made in house
T1 sequence (P43351 1-418): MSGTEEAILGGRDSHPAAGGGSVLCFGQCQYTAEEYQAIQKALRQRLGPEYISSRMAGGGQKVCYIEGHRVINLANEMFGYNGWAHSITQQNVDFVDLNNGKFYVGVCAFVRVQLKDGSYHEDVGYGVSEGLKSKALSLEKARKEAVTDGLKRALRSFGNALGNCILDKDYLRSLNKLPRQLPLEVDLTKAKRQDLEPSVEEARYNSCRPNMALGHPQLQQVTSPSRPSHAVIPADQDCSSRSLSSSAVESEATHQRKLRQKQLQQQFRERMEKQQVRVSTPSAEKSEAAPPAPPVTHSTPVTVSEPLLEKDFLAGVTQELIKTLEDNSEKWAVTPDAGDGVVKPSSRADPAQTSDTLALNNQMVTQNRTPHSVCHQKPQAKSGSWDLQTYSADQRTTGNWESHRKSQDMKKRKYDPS
Assay: D-loop formation assay
Type: biochemical
Conditions: compound at 10 μM; 32P-labeled ssDNA (oligo 90) and supercoiled pUC19 DNA, 37° C.

SMILES	D-Loop (% @10 μM)
CCN1CCN(c2cc(C)c3cc(NC(=S)NCCN4CCCCC4)ccc3n2)CC1 [compound 0025]	36.08%
S=C(NCCN1CCCCCC1)Nc1ccc2nc(N3CCNCC3)ccc2c1 [compound 0021]	40.29%
CCN(CC)CCCCNC(=S)Nc1ccc2nc(N3CCN(CC)CC3)cc(C)c2c1 [compound 0036]	64.62%
CCN1CCN(c2cc(C)c3cc(NC(=O)NCCCN4CCCCCC4)ccc3n2)CC1 [compound 0039, 1-(3-(azepan-1-yl)propyl)-3-(2-(4-ethylpiperazin-1-yl)-4-methylquinolin-6-yl)urea]	93.38%
CCN(CC)CCNC(=S)Nc1ccc2nc(N3CCN(CC4CCCNC4)CC3)cc(C)c2c1 (centres unmarked) [compound 0051]	10.13%
CCN1CCN(c2cc(C)c3cc(NC(=S)NCCCN4CCCCCC4)ccc3n2)CC1 [compound 0028]	46.57%
CCN(CC)CCNC(=S)Nc1ccc2nc(N3CCN(C(=O)C4CNCCN4)CC3)cc(C)c2c1 (centres unmarked) [compound 0055]	27.42%
CCN1CCN(c2cc(C)c3cc(NC(=S)NCCCCN)ccc3n2)CC1 [compound 0047]	7.92%
CCN(CC)CCNC(=S)Nc1ccc2nc(N3CCN(CC4CCCCC4)CC3)cc(C)c2c1 [compound 0050]	62.82%
CCN(CC)CCNC(=S)Nc1ccc2nc(N3CCN(CC4CC4)CC3)cc(C)c2c1 [compound 0049]	44.4%
CCN(CC)CCNC(=S)Nc1ccc2nc(N3CCN(CC4CCNCC4)CC3)cc(C)c2c1 [compound 0052]	4.07%
CCN1CCN(c2cc(C)c3cc(NC(=S)NCCN4CCN(C)CC4)ccc3n2)CC1 [compound 0046]	18.73%
CCN1CCN(c2cc(C)c3cc(NC(=S)NCCN(C(C)C)C(C)C)ccc3n2)CC1 [compound 0035]	64.68%
CCN(CC)CCNC(=S)Nc1ccc2nc(N3CCNCC3)cc(C)c2c1 [compound 0048]	15.65%
CCN1CCN(c2cc(C)c3cc(NC(=S)NCCN4CCCCCCC4)ccc3n2)CC1 [compound 0041]	62.62%
CCN1CCN(c2cc(C)c3cc(NC(=S)NCCN4CCCC4)ccc3n2)CC1 [compound 0029]	46.67%
CCN1CCN(c2cc(C)c3cc(NC(=S)NCCN4CCCCCC4)ccc3n2)CC1 [compound 0027]	23.26%
S=C(NCCCN1CCCCCC1)Nc1ccc2nc(N3CCNCC3)ccc2c1 [compound 0022]	37.7%
CCC(C)[C@H](N)C(=O)N1CCN(c2cc(C)c3cc(NC(=S)NCCN(CC)CC)ccc3n2)CC1 (some centres unmarked) [compound 0053]	54.13%
CCN1CCN(c2cc(C)c3cc(NC(=S)NCC(C)(CN)CN)ccc3n2)CC1 [compound 0044]	50.05%
CCN1CCN(c2cc(C)c3cc(NC(=S)NCCN4CCNCC4)ccc3n2)CC1 [compound 0045]	55.68%
CCN1CCN(c2cc(C)c3cc(NC(=S)NCCCN4CCCCC4)ccc3n2)CC1 [compound 0026]	11.42%
CCN1CCN(c2cc(C)c3cc(NC(=S)NCCN)ccc3n2)CC1 [compound 0033]	12.77%
CCN1CCN(c2cc(C)c3cc(NC(=S)NCCCN4CCC4)ccc3n2)CC1 [compound 0042]	53.70%
CCN(CC)CCNC(=O)Nc1ccc2nc(N3CCN(CC)CC3)cc(C)c2c1 [compound 0038, 1-(2-(diethylamino)ethyl)-3-(2-(4-ethylpiperazin-1-yl)-4-methylquinolin-6-yl)urea]	77.7%
CCN(CC)CCNC(=S)Nc1ccc2nc(N3CCN(C(=O)C4CCCN4)CC3)cc(C)c2c1 (centres unmarked) [compound 0054]	53.78%

Other lines, results leading:

D-Loop (% @10 μM)	SMILES
0.34%	Cc1cc(N2CCN(CC3CCNCC3)CC2)nc2ccc(NC(=O)NCCCN3CCCCCC3)cc12 [compound 0113, 1-(3-(azepan-1-yl)propyl)-3-(4-methyl-2-(4-(piperidin-4-ylmethyl)piperazin-1-yl)quinolin-6-yl)urea]
70.99%	CCN(CC)CCNC(=S)Nc1ccc2nc(N3CCCCC3)cc(C)c2c1 [compound 0098]
3.47%	Cc1cc(N2CCCC2)nc2ccc(NC(=S)NCCCN3CCCCC3)cc12 [compound 0091]
3.99%	Cc1cc(N2CCCC2)nc2ccc(NC(=S)NCCN3CCNCC3)cc12 [compound 0096]
35.63%	CCN(CC)CCNC(=S)Nc1ccc2nc(N3CCN(CCN)CC3)cc(C)c2c1 [compound 0080]
4.44%	CCN(CC)CCNC(=S)Nc1ccc2nc(N3CCN(CC(N)CO)CC3)cc(C)c2c1 (centres unmarked) [compound 0086]
1.5%	Cc1cc(N2CCN(CC3CCCNC3)CC2)nc2ccc(NC(=S)NCCCN3CCCC3)cc12 (centres unmarked) [compound 0064]
0.31%	CCN1CCN(c2cc(C)c3cc(NC(=S)NCCCCCN)ccc3n2)CC1 [compound 0056]
52.1%	CCN1CCN(c2cc(C)c3cc(NC(=S)NCCCNC)ccc3n2)CC1 [compound 0057]
4.72%	Cc1cc(N2CCCC2)nc2ccc(NC(=S)NCCN3CCN(C)CC3)cc12 [compound 0097]
1.89%	Cc1cc(N2CCN(CC3CCCNC3)CC2)nc2ccc(NC(=S)NCCCN3CCCCCC3)cc12 (centres unmarked) [compound 0062]
21.2%	CCN1CCN(c2cc(C)c3cc(NC(=S)NCCCN)ccc3n2)CC1 [compound 0077]
30.62%	CCN1CCN(c2cc(C)c3cc(NC(=S)NCCCN4CCCC4)ccc3n2)CC1 [compound 0068]
16%	CCN(CC)CCNC(=O)C(=O)Nc1ccc2nc(N3CCN(CC)CC3)cc(C)c2c1 [compound 0114, N^1-(2-(diethylamino)ethyl)-N^2-(2-(4-ethylpiperazin-1-yl)-4-methylquinolin-6-yl)oxalamide]
16.42%	CCN1CCN(c2cc(C)c3cc(NC(=S)NCCN4CCC(CN5CCCC5)C4)ccc3n2)CC1 (centres unmarked) [compound 0073]
25.89%	CCN1CCN(c2cc(C)c3cc(NC(=S)N(C)CCCN)ccc3n2)CC1 [compound 0058]
25.15%	CCN1CCN(c2cc(C)c3cc(NC(=S)NCCCN4CCNCC4)ccc3n2)CC1 [compound 0079]

D-Loop (% @10 μM)	SMILES
1.3%	Cc1cc(N2CCN(CC3CCCNC3)CC2)nc2ccc(NC(=S)NCCN3CCCCCC3)cc12 (centres unmarked) [compound 0059]
35.65%	CCN1CCN(c2cc(C)c3cc(NC(=S)NCCCCN(C)C)ccc3n2)CC1 [compound 0067]
1.58%	Cc1cc(N2CCN(CC3CCNCC3)CC2)nc2ccc(NC(=S)NCCCN3CCCCCC3)cc12 [compound 0063]
20.7%	CCN1CCN(c2cc(C)c3cc(NC(=S)NCCC4CCCN4)ccc3n2)CC1 (centres unmarked) [compound 0069]
5.98%	Cc1cc(N2CCCC2)nc2ccc(NC(=S)NCCCN3CCCC3)cc12 [compound 0092]
3.48%	Cc1cc(N2CCCC2)nc2ccc(NC(=S)NCCN3CCCCCC3)cc12 [compound 0089]
8.25%	CCN(CC)CCNC(=S)Nc1ccc2nc(N3CCCC3)cc(C)c2c1 [compound 0088]
0%	CCN(CC)CCNC(=S)Nc1ccc2nc(N3CCN(CCC4CCC(N)CC4)CC3)cc(C)c2c1 (centres unmarked) [compound 0087]
4.51%	Cc1cc(N2CCCC2)nc2ccc(NC(=S)NCCCCN)cc12 [compound 0095]
67.50%	Cc1cc(N2CCCCC2)nc2ccc(NC(=S)NCCN3CCCCCC3)cc12 [compound 0099]
0.66%	Cc1cc(N2CCN(CC3CCNCC3)CC2)nc2ccc(NC(=S)NCCN3CCCCCC3)cc12 [compound 0060]
68.84%	CCN(CC)CCNC(=S)Nc1ccc2nc(N3CCN(Cc4nccn4C)CC3)cc(C)c2c1 [compound 0084]
4.26%	Cc1cc(N2CCCC2)nc2ccc(NC(=S)NCCCN)cc12 [compound 0094]
2.93%	Cc1cc(N2CCCC2)nc2ccc(NC(=S)NCCN3CCCCC3)cc12 [compound 0090]
4.86%	Cc1cc(N2CCCC2)nc2ccc(NC(=S)NCCN)cc12 [compound 0093]
1.04%	Cc1cc(N2CCN(CC3CCNCC3)CC2)nc2ccc(NC(=S)NCCCN3CCCC3)cc12 [compound 0065]
